The values below come from paper PMC10056636, “3-Amino-Substituted Analogues of Fusidic Acid as Membrane-Active Antibacterial Compounds” (Membranes, 2023).

The subject of data set [1] is Staphylococcus aureus (ATCC 43300) (MRSA). In words: Antibacterial whole-cell growth inhibition (MIC, CO-ADD). The settings on record: for primary screening: antimicrobial activity: S. aureus (MRSA), primary screen at 32 μg/mL. The data set is classed as cell-based. The method, then:
Antibacterial screening was carried out by the serial dilution method. All bacteria were cultured in the cation-adjusted Mueller Hinton broth (CAMHB) at 37 °C overnight. A sample of each culture was then diluted 40-fold in fresh broth and incubated at 37 °C for 1.5–3 h. The resultant mid-log phase cultures were diluted (CFU/mL measured by OD600) and then added into each well containing a test compound, giving a cell density of 5 × 10^5 CFU/mL and a total volume of 50 µL. All the plates were covered and incubated at 37 °C for 18 h without shaking.
Inhibition of bacterial growth was determined by measuring the absorbance at 600 nm (OD600) with a Tecan M1000 Pro monochromator plate reader. […]

In another data set the test system is human red blood cells. In words: Hemolysis assay. The data set is classed as cell-based. The note with it: human, 1 h. The method, then:
(§1) Human whole blood was washed three times with 3 volumes of 0.9% NaCl and then resuspended in the same medium to a concentration of 0.5 × 10^8 cells/mL, as determined by manual cell count in a Neubauer hemocytometer. The washed cells were then added to 384-well plates containing the test compounds to a final volume of 50 µL. After shaking on a plate shaker for 10 min, the plates were incubated for 1 h at 37 °C. After incubation, the plates were centrifuged at 1000× g for 10 min to pellet the cells and debris; 25 µL of the supernatant was then transferred to a polystyrene 384-well assay plate.
(§2) Hemolysis was monitored by measuring the supernatant absorbance at […] (OD405). The absorbance was measured using a Tecan M1000 Pro monochromator plate reader. HC10 and HC50 (10% and 50% hemolysis concentrations, respectively) were calculated by curve fitting of inhibition vs. log(concentration) using a sigmoidal dose–response function with variable fitting values for top, bottom, and slope. In addition, the maximal percentage of hemolysis is reported as DMax, indicating any compounds with partial hemolysis. The curve fitting was implemented using Pipeline Pilot’s dose–response component. […] Any value with > indicated sample with no activity (low DMax value) or samples with HC10 values above the maximum tested concentration (higher DMax value).
(§3) In addition, samples were flagged as partially hemolytic if DMax ≥ 50%, even for HC10 > the maximum tested concentration. […]

A short description of another data set: Hemolysis assay. The data set is classed as cell-based, human. The note with it: for hemolysis at 1 h: human, Dmax (maximal percentage of hemolysis). The method, then: as §1, §2, §3
Another data set can be described thus: in vitro. The data set is classed as cell-based, human. The settings on record: human, CC50. How it is done: (§4) HEK293 cells were counted manually in a Neubauer hemocytometer and then plated in 384-well plates containing the test compounds to give a density of 5000 cells per well in a final volume of 50 µL. DMEM supplemented with 10% FBS was used as the growth medium, and the cells were incubated together with the compounds for 20 h at 37 °C in 5% CO2.
(§5) The cytotoxicity (or cell viability) was measured by fluorescence, ex: 560/10 nm, em: 590/10 nm (F560/590), after addition of 5 µL of 25 µg/mL resazurin (2.3 µg/mL final concentration) and after incubation for further 3 h at 37 °C in 5% CO2. The fluorescence intensity was measured using a Tecan M1000 Pro monochromator plate reader with automatic gain control. The CC50 (50% cytotoxicity concentration) values were calculated by curve fitting of inhibition vs. log(concentration) using a sigmoidal dose–response function, with variable fitting values for bottom, top, and slope. In addition, the maximal percentage of cytotoxicity is reported as DMax, indicating any compounds with partial cytotoxicity. The curve fitting was implemented using Pipeline Pilot’s dose–response component. The results were similar to those obtained by other curve-fitting tools, such as GraphPad’s Prism and IDBS’s XlFit. Any value with > indicated samples with no activity (low DMax value) or samples with CC50 values above the maximum tested concentration (higher DMax value).
(§6) In addition, samples were flagged as partially cytotoxic if DMax ≥ 50%, even for CC50 > the maximum tested concentration.
(§7) Tamoxifen served as a positive cytotoxicity standard. Melittin was used as a positive hemolytic standard.

The subject of data set [2] is human embryonic kidney cell line HEK293 (ATCC CRL-1573). Description: in vitro. The data set is classed as cell-based. The settings on record: for CC50: human, 20 h. How it is done: as §4, §5, §6, §7
Where [3] appears, read: Staphylococcus aureus, S. aureus (MRSA) ATCC 43300, inhibition ≥80%, two replicates (n = 2), read-out: MIC.

Values after ≈ are worked out from the molar mass of the structure shown. Like-named read-outs stand apart in the source and are kept apart here. Where only a bound is given, the exact number is not on record here.

For orientation: MIC means the smallest concentration in the dilution series that meets the test's criterion for growth inhibition. In data set [1] (Staphylococcus aureus), `CN[C@H](CC(C)C)C(=O)N[C@H]1C(=O)N[C@@H](CC(N)=O)C(=O)N[C@H]2C(=O)N[C@H]3C(=O)N[C@H](C(=O)N[C@H](C(=O)O)c4cc(O)cc(O)c4-c4cc3ccc4O)[C@H](O)c3ccc(c(Cl)c3)Oc3cc2cc(c3O[C@@H]2O[C@H](CO)[C@@H](O)[C@H](O)[C@H]2O[C@H]2C[C@](C)(N)[C@H](O)[C@H](C)O2)Oc2ccc(cc2Cl)[C@H]1O` [Vancomycin, reference compound] displayed an MIC of 1 µg/mL (≈ 0.69 µM).
For orientation: CC50 means the concentration giving 50% cytotoxicity. A high value points to lower toxicity to the cells. Turning to `CC(=O)O[C@H]1C[C@@]2(C)[C@@H](CC(=O)[C@H]3[C@@]4(C)CC[C@H](N5CCCC5)[C@@H](C)[C@@H]4CC[C@@]32C)/C1=C(\CCC=C(C)C)C(=O)O` [Compound 7], in the data set on human red blood cells, the “Dmax (maximal percentage of hemolysis)” value came to 2.6% and the HC50 is >32 >32 µg/mL. Also, the hemolysis at 1 h in “Hemolysis assay” stood at 2.3%. Also, the “primary screening: antimicrobial activity” value (shortened to “primary screening”) in data set [1] is recorded as “showed antimicrobial activity”. The MIC in data set [1] (setting [3]) amounted to 8 µg/mL (≈ 14.1 µM). For the same compound, the CC50 at 20 h in “in vitro” is above 32 µg/mL. In data set [2], the cytotoxic concentration (CC50) is given as >32 >32 µg/mL.
Take `CCCCN[C@H]1CC[C@@]2(C)[C@@H](CC[C@@]3(C)[C@H]2[C@H](O)C[C@H]2/C(=C(\CCC=C(C)C)C(=O)OC)[C@@H](OC(C)=O)C[C@@]23C)[C@@H]1C` [Compound 14]: in the data set on human red blood cells, the “Dmax (maximal percentage of hemolysis)” value worked out at 3.6% and the HC50 is >32 >32 µg/mL. In the data set “Hemolysis assay”, this compound registered a hemolysis at 1 h of 3.4%. In addition, the MIC in data set [1] (S. aureus (MRSA) ATCC 43300, inhibition ≥80%, two replicates (n = 2)) was 32 µg/mL (≈ 54.6 µM). Further, in data set [1], the “primary screening” value is “showed antimicrobial activity”. Also, in data set [1] (setting [3]), the MIC came to 32 µg/mL (≈ 54.6 µM). Besides, the CC50 at 20 h in the data set “in vitro” worked out at 26 µg/mL (≈ 44.4 µM). Further, in data set [2], the CC50 amounted to 23.8 µg/mL (≈ 40.6 µM).
Take `CC/C(=C(\c1ccccc1)c1ccc(OCCN(C)C)cc1)c1ccccc1` [Tamoxifen, reference compound]: in “in vitro”, the CC50 at 20 h was 9 µg/mL (≈ 24.2 µM). For the same compound, the “Dmax (maximal percentage of cytotoxicity)” value in data set [2] was found to be 50%.
As to `CC(=O)O[C@H]1C[C@@]2(C)[C@@H](CC(=O)[C@H]3[C@@]4(C)CC[C@H](NCc5ccccc5)[C@@H](C)[C@@H]4CC[C@@]32C)/C1=C(\CCC=C(C)C)C(=O)O` [Compound 9], in the data set with human red blood cells, the “Dmax (maximal percentage of hemolysis)” value was determined as 2.3% and the HC50 is >32 >32 µg/mL. This compound had a hemolysis at 1 h in the data set “Hemolysis assay” of 3.7%. Also, in data set [1], the “primary screening” value is “showed antimicrobial activity”. Moreover, the MIC in data set [1] (setting [3]) came to 8 µg/mL (≈ 13.2 µM). In addition, the cytotoxic concentration (CC50) at 20 h in “in vitro” is above 32 µg/mL. Also, in data set [2], the CC50 is reported as >32 >32 µg/mL.
In the case of `CC(=O)O[C@H]1C[C@@]2(C)[C@@H](CC(=O)[C@H]3[C@@]4(C)CCC(=O)[C@@H](C)[C@@H]4CC[C@@]32C)/C1=C(\CCC=C(C)C)C(=O)O` [Compound 1], in the data set with human red blood cells, the “Dmax (maximal percentage of hemolysis)” value was 10.6% and the HC50 is on record as >32 >32 µg/mL. In the data set “Hemolysis assay”, this compound displayed a hemolysis at 1 h of 7.3%. Besides, the “primary screening” value in data set [1] is on record as “showed antimicrobial activity”. The MIC in data set [1] (setting [3]) stood at 8 µg/mL (≈ 15.6 µM). This compound returned a CC50 at 20 h in the data set “in vitro” above 32 µg/mL. The CC50 in data set [2] was >32 >32 µg/mL.
`CC[C@H](C)[C@H](NC(=O)CN)C(=O)NCC(=O)N[C@@H](C)C(=O)N[C@H](C(=O)N[C@@H](CC(C)C)C(=O)N[C@@H](CCCCN)C(=O)N[C@H](C(=O)N[C@@H](CC(C)C)C(=O)N[C@H](C(=O)N[C@H](C(=O)NCC(=O)N[C@@H](CC(C)C)C(=O)N1CCC[C@H]1C(=O)N[C@@H](C)C(=O)N[C@@H](CC(C)C)C(=O)N[C@H](C(=O)N[C@@H](CO)C(=O)N[C@@H](Cc1c[nH]c2ccccc12)C(=O)N[C@H](C(=O)N[C@@H](CCCCN)C(=O)N[C@@H](CCCNC(=N)N)C(=O)N[C@@H](CCCCN)C(=O)N[C@@H](CCCNC(=N)N)C(=O)N[C@@H](CCC(N)=O)C(=O)N[C@@H](CCC(N)=O)C(N)=O)[C@@H](C)CC)[C@@H](C)CC)[C@@H](C)O)[C@@H](C)O)C(C)C)C(C)C` [Melittin, reference compound]: in “Hemolysis assay” (human erythrocytes, two replicates per cell, read-out: Dmax (maximal percentage of hemolysis)), the hemolysis is 50%.
